Assay [1] has as its target T1, human dopamine transporter (hDAT) (Homo sapiens, UniProt Q01959). Put plainly: biochemical. Format: binding.
For assay [2], the target named is T2, human norepinephrine transporter (hNET) (Homo sapiens, UniProt P23975). The assay can be described thus: biochemical. It is filed as binding.
Assay [3] addresses T1, human dopamine transporter (hDAT). The assay can be described thus: cell-based.
In assay [4] the target is T2, human norepinephrine transporter (hNET). Put plainly: cell-based.
Assay [5] has as its system male Swiss-Webster mice. The assay can be described thus: animal or person. Format: in vivo. As to conditions: for ED50: Mus musculus, read-out: ED50 (dose producing ½ maximal stimulant activity); for ED50 / Dose at estimated maximum effect / Doses with significant differences against the vehicle group (p<0.05): ip; for Maximal effect/cocaine maximal effect ratio (ME/CME) / Maximum effect, horizontal activity / Dose at estimated maximum effect / Doses with significant differences against the vehicle group (p<0.05): mouse, in vivo.

Assay [6] concerns male Swiss-Webster mice. The assay can be described thus: Cocaine interaction study (locomotor activity). It is filed as in vivo. As to conditions: for AD50 (dose attenuating cocaine-induced stimulation by 50%): IP, 30-min period; for AD50 (dose attenuating cocaine-induced stimulation by 50%) / Doses with significant differences against the cocaine group (p<0.05): 20 mg/kg cocaine IP; for Doses with significant differences against the cocaine group (p<0.05): planned comparisons on log10 horizontal activity counts.

Molecules are shown by their SMILES. “And” between values parts separate entries of the source, which are not always exact repeats. Equal values may be shown once. Read-outs that look alike come from different tables or passages of the source.

We go through three compounds from patent US6835371B1 (priority 1997, dated 2004).

T1 sequence (Q01959 whole entry): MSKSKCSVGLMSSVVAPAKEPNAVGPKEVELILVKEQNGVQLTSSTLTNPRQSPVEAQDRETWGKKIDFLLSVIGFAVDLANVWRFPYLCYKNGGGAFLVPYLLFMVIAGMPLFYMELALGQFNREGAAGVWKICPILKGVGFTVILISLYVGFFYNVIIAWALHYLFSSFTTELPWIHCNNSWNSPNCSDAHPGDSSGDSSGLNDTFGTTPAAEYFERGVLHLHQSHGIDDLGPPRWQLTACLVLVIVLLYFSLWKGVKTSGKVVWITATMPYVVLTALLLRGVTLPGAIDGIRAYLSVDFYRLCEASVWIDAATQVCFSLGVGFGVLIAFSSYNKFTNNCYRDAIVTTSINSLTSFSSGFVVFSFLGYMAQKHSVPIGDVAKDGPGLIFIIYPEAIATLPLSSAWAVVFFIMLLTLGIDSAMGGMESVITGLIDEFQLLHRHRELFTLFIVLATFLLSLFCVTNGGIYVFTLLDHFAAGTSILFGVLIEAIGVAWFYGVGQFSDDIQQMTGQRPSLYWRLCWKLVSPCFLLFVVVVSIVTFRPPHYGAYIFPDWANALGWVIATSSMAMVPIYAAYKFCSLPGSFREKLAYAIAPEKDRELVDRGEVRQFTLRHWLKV
T2 sequence (P23975 whole entry): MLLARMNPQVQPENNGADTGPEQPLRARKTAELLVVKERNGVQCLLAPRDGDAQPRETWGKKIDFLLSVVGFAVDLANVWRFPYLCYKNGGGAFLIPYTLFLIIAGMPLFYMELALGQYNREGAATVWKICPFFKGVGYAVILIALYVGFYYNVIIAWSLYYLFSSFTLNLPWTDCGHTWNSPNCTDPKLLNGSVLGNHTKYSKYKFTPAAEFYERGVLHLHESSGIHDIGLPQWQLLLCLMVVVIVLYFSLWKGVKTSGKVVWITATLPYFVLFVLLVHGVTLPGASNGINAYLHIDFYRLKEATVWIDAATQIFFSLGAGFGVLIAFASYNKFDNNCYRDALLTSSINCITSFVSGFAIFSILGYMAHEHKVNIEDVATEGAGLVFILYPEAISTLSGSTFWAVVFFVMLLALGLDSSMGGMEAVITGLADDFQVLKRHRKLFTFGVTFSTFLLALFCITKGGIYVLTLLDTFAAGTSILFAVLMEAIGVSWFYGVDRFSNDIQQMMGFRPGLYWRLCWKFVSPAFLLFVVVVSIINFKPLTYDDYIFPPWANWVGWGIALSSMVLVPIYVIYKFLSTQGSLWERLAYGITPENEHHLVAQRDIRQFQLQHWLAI

`Fc1ccc(C(OCCCCN2CCN(c3ccccc3F)CC2)c2ccc(F)cc2)cc1` [Compound 31526]: in assay [1], the “Binding discrimination ratio NET/DAT” value came to 10.8; the “Binding discrimination ratio SERT/DAT” value was found to be 0.8; the Hill coefficient (in general, the slope factor of the fitted curve) is −0.86 ± 0.06. In assay [1] ([125I]RTI-55 binding Ki, DAT), the Ki (usually the equilibrium dissociation constant of an inhibitor or competing ligand from its target) worked out at 38.7 nM. Besides, the Hill coefficient in assay [2] was −0.91 ± 0.09. In assay [2] ([125I]RTI-55 binding Ki, NET), this compound returned a Ki of 417 nM. Besides, in assay [3], the “Discrimination Ratio DAT Binding/Reuptake” value was found to be 11.9, the “Discrimination ratio uptake/binding (DA)” value was 11.9, inhibition was half-maximal at 460 nM (IC50) and the Ki stood at 460 ± 140 nM. The same compound displayed a Ki in assay [4] of 700 ± 240 nM. Also, the IC50 (commonly the concentration that inhibits the measured activity by half) in assay [4] ([3H]NE Uptake IC50) was 700 nM. For the same compound, the IC50 in assay [4] (read-out: [3H]NE Uptake IC50) was 700 nM. In the assay with male Swiss-Webster mice [5], the ED50 – broadly, the dose at which the effect has come halfway, by size or by number of responders – turned out to be 0.015 mg/kg; the “Maximal effect/cocaine maximal effect ratio (ME/CME)” value came to 0.49; the “Maximum effect, horizontal activity” value is 2716.1 counts/10 min; the “Dose at estimated maximum effect” value is given as 0.64 mg/kg. Also, the “Doses with significant differences against the vehicle group (p<0.05)” value with male Swiss-Webster mice [5] is reported as 1 mg/kg. For the same compound, the “Attenuation of cocaine-induced locomotor activity” value in the assay with male Swiss-Webster mice [6] (0.1-10 mg/kg IP 20 min before 20 mg/kg cocaine IP) is “did not attenuate locomotor activity induced by 20 mg/kg cocaine”.

Turning to `OC1(c2ccc(Br)cc2)CCN(CCCCOC(c2ccc(F)cc2)c2ccc(F)cc2)CC1` [Compound 31530], in assay [1], the “Binding discrimination ratio NET/DAT” value turned out to be 64.1, the “Binding discrimination ratio SERT/DAT” value is 9.7 and the Hill coefficient was −0.59 ± 0.06. Also, the Ki in assay [1] ([125I]RTI-55 binding Ki, DAT) is 3.9 nM and 10 nM. Further, the Hill coefficient in assay [2] was −0.97 ± 0.30. In addition, in assay [3], the “Discrimination ratio uptake/binding (DA)” value is recorded as 110.5. Besides, the IC50 in assay [3] (HEK-hDAT cells, read-out: [3H]Dopamine Uptake IC50) amounted to 431 nM. Moreover, in assay [3] (Table 2, read-out: Reuptake [3H]DA (Ki ± SD)), the Ki came out at 431 ± 88 nM. Moreover, the IC50 in assay [4] (HEK-hNET cells, read-out: [3H]NE Uptake IC50) came to 1870 nM. In addition, the Ki in assay [4] (Table 2, read-out: Reuptake [3H]NE (Ki ± SD)) was 1870 ± 670 nM. In the assay on male Swiss-Webster mice [5], the ED50 worked out at 2.42 mg/kg; the “Maximal effect/cocaine maximal effect ratio (ME/CME)” value is 0.38; the “Maximum effect, horizontal activity” value was determined as 2132.6 counts/10 min; the “Dose at estimated maximum effect” value is given as 6.00 mg/kg. In the assay with male Swiss-Webster mice [6], the “AD50 (dose attenuating cocaine-induced stimulation by 50%)” value came to 15.75 mg/kg and the “Doses with significant differences against the cocaine group (p<0.05)” value worked out at 30 mg/kg.

Turning to `Fc1ccc(C(OCCCCN2CCN(c3cccc(C(F)(F)F)c3)CC2)c2ccc(F)cc2)cc1` [Compound 31532], in assay [1], the “Binding discrimination ratio NET/DAT” value worked out at 6.8. Further, the “Binding discrimination ratio SERT/DAT” value in assay [1] is 6.8. The Hill coefficient in assay [1] was −0.87 ± 0.05; in assay [2], −0.80 ± 0.03. The Ki was 32.5 nM in assay [1] ([125I]RTI-55 binding Ki, DAT); 32.5 nM in assay [1] (read-out: [125I]RTI-55 binding Ki, DAT); 222 nM in assay [2] ([125I]RTI-55 binding Ki, NET); 222 nM in assay [2] (read-out: [125I]RTI-55 binding Ki, NET); 380 ± 130 nM in assay [3]; 310 ± 100 nM in assay [4]. The “Discrimination Ratio DAT Binding/Reuptake” value in assay [3] is on record as 11.7. Besides, the “Discrimination ratio uptake/binding (DA)” value in assay [3] is 11.7. For the same compound, the IC50 came out at 380 nM in assay [3], 310 nM in assay [4] ([3H]NE Uptake IC50) and 310 nM in assay [4] (read-out: [3H]NE Uptake IC50). Also, in the assay with male Swiss-Webster mice [5] (IP, 20 min pretreatment, 0-30 min, descending portion 10 to 100 mg/kg), the “ID50 (dose producing ½ maximal depressant activity)” value came out at 112.95 mg/kg. Moreover, the “Doses with significant differences against the vehicle group (p<0.05)” value in the assay on male Swiss-Webster mice [5] is 100 mg/kg. Further, in the assay with male Swiss-Webster mice [6], the “AD50 (dose attenuating cocaine-induced stimulation by 50%)” value is on record as 18.35 mg/kg. Further, the “Doses with significant differences against the cocaine group (p<0.05)” value in the assay on male Swiss-Webster mice [6] is 100 mg/kg.
